The target in one assay is T1, eGFP-IKZF1Δ fusion (Homo sapiens, UniProt Q13422).
T1 construct: eGFP (followed by P2A); expressed in transfected cells
In words: Cellular degradation assay of eGFP-IKZF1Δ reporter by flow cytometry. Conditions: Flip-In 293 cells, 5 h, eGFP/mCherry. The format is cell-based. The protocol: Following 2-3 passage cycle FACS (FACSAria™ II, BD) was used to enrich for cells expressing eGFP and mCherry.
Signal from at least 3,000 events per well was acquired, and the eGFP and mCherry florescence monitored. Data were analyzed using FlowJo™ (FlowJo™, LCC). […] The eGFP protein abundance relative to mCherry was then quantified as a ten-fold amplified ratio for each individual cell using the formula: 10×eGFP/mCherry. The median of the ratio was then calculated per set, normalized to the median of the DMSO ratio.
Quantitative assessment of cellular degradation of a IKZF1-EGFP reporter using flow cytometry analysis. Cells stably expressing IKZF1Δ-EGFP and mCherry were treated with increasing concentrations of the indicated molecules and the EGFP and mCherry signals followed using flow cytometry analysis. Data in this figure are presented as means±s.d. from four cell culture replicates (n=4).

Assay [1] deals with Jurkat cells expressing individual ZFs in the Cilantro 2 protein degradation reporter. In words: Drug dependent degradation of ZFs in Cilantro 2 protein degradation reporter lentivector. Conditions: Cilantro 2, Jurkat cells. Format: cell-based. The text has this:
Next-generation sequencing of sorted cell populations encoding the ZF library was based on GFP expression. […] The experimental procedure was as described in Example 16.

The test system of assay [2] is DDB1ΔB-CRBN. In words: TR-FRET of SALL4 degron binding to CRBN. Set-up: species or system human. The settings on record: for IMiD induced CRBN binding: purified proteins, SALL4 point mutants; for IMiD-dependent dimerization / binding affinity to CRBN: SALL4 degron tags, biochemical assays. How it is done:
Compounds in binding assays were dispensed into a 384-well microplate (Corning, 4514) using the D300e Digital Dispenser (HP) normalized to 1% DMSO and containing 100 nM biotinylated Strep-Avi-SALL4 (WT or mutant, see, FIG. 3A-FIG. 3K), 1 μM His6-DDB1ΔB-His6-CRBNBODIPY-Spycatcher and 4 nM terbium-coupled streptavidin (Invitrogen) in a buffer containing 50 mM Tris pH 7.5, 100 mM NaCl, 1 mM TCEP, 0.1% Pluronic F-68 solution (Sigma). Before TR-FRET measurements were conducted, the reactions were incubated for 15 minutes at room temperature (RT). After excitation of terbium fluorescence at 337 nm, emission at 490 nm (terbium) and 520 nm (boron-dipyrromethene (BODIPY)) were recorded with a 70 μs delay over 600 μs to reduce background fluorescence and the reaction was followed over 30×200 second cycles of each data point using a PHERAstar® FS microplate reader (BMG Labtech). The TR-FRET signal of each data point was extracted by calculating the 520/490 nm ratios. Data from three independent measurements (n=3), each calculated as an average of 5 technical replicates per well per experiment, was plotted and the half maximal effective concentrations EC50 values calculated using variable slope equation in GraphPad Prism 7. […] The resulting data were fitted as described previously. (Petzold et al., Nature 532:127-130 (2016)).

The subject of assay [3] is Kelly cells transiently transfected with Flag-hsSALL4. In words: Western blot of Flag-hsSALL4 levels in Kelly cells treated with thalidomide. The settings on record: 24 hours. Format: cell-based. The protocol:
Kelly cells were transiently transfected with hsSALL4^G416A or Flag-hsSALL4^G416N were treated with increasing concentrations of thalidomide or DMSO as a control. Following 24 hours of incubation, SALL4 (α-Flag) and GAPDH protein levels were assessed by western blot analysis (FIG. 4A). (See, Example 7 for western blot method.)
Kelly cells transiently transfected with Flag-hsSALL4WT, Flag-hsSALL4G600A, or hsSALL4G600N were treated with increasing concentrations of thalidomide or DMSO as a control. Following 24 h of incubation, SALL4 (α-Flag) and GAPDH protein levels were assessed by western blot analysis (one representative experiment is shown out of three replicates).
Cells were treated with compounds as indicated and incubated for 24 hours, or as indicated. Samples were run on 4-20% or Any kD™ SDS-PAGE Gels (Bio-rad), and transferred to polyvinylidene fluoride (PVDF) membranes using the iBlot® 2.0 dry blotting system (Thermo Fisher Scientific). Membranes were blocked with LI-COR® blocking solution (LI-COR®), and incubated with primary antibodies overnight, followed by three washes in LI-COR® blocking solution and incubation with secondary antibodies for one hour in the dark. After three final washes, the membranes were imaged on a LI-COR® fluorescent imaging station.

For assay [4], the target named is T2, DDB1ΔB-CRBN (Homo sapiens, UniProt Q96SW2).
T2 construct: 3C protease site (N); made in house; host or cells: Trichoplusia ni High Five insect cells (baculovirus)
T2 sequence (Q96SW2 whole entry, stated change not applied): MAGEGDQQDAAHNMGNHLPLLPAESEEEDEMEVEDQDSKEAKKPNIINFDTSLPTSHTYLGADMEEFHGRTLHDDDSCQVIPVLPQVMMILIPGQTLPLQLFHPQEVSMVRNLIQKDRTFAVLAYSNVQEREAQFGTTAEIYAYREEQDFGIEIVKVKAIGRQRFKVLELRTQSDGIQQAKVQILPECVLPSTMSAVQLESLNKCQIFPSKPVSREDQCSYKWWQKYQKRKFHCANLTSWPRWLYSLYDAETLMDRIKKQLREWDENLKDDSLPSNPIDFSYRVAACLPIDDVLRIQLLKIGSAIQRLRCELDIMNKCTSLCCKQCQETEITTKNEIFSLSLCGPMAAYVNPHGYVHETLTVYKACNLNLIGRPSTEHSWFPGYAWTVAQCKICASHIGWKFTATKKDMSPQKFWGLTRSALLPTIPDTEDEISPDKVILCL
In words: IKZF1Δ TR-FRET dimerization assay. Format: binding. The settings on record: titration of IMiDs. How it is done:
Compounds in dimerization assays were dispensed in a 384-well microplate (Corning, 4514) using D300e Digital Dispenser (HP) normalized to 2% DMSO into 80 nM biotinylated StrepII-avi-IKZF1Δ (See, Figure legends), 100 nM His6-DDB1ΔB-His6-CRBNBODIPY-Spycatcher and 2 nM terbium-coupled streptavidin (Invitrogen™) in a buffer containing 50 mM Tris pH 7.5, 200 mM NaCl, 0.1% Pluronic F-68 solution (Sigma) and 2% DMSO (4% DMSO final). Before TR-FRET measurements were conducted, the reactions were incubated for 15 min at RT. After excitation of terbium fluorescence at 337 nm, emission at 490 nm (terbium) and 520 nm (BODIPY) were recorded with a […] to reduce background fluorescence and the reaction was followed over 30 200 second cycles of each data point using a PHERAstar® FS microplate reader (BMG Labtech). The TR-FRET signal of each data point was extracted by calculating the 520/490 nm ratio. The 520/490 nm ratios in IKZF1Δ TR-FRET assays were plotted to calculate or IC50 (for compound titrations) using GraphPad Prism 7 variable slope equation. The standard deviation in IKZF1Δ TR-FRET compound titrations was calculated from three independent replicates (n=3), or as an average of 5 technical replicates of single experiment for unlabeled protein titrations.
Titration of the indicated molecules to DDB1ΔB-CRBNSPYCATCHER-BODIPY, Terbium-streptavidin and IKZF1Δbiotin. […]

T1 sequence (Q96SW2 whole entry partner, one chain of several, the tested form may be a part): as the sequence (Q96SW2 whole entry, stated change not applied) above
T1 sequence (Q16531 whole entry partner, one chain of several, the tested form may be a part): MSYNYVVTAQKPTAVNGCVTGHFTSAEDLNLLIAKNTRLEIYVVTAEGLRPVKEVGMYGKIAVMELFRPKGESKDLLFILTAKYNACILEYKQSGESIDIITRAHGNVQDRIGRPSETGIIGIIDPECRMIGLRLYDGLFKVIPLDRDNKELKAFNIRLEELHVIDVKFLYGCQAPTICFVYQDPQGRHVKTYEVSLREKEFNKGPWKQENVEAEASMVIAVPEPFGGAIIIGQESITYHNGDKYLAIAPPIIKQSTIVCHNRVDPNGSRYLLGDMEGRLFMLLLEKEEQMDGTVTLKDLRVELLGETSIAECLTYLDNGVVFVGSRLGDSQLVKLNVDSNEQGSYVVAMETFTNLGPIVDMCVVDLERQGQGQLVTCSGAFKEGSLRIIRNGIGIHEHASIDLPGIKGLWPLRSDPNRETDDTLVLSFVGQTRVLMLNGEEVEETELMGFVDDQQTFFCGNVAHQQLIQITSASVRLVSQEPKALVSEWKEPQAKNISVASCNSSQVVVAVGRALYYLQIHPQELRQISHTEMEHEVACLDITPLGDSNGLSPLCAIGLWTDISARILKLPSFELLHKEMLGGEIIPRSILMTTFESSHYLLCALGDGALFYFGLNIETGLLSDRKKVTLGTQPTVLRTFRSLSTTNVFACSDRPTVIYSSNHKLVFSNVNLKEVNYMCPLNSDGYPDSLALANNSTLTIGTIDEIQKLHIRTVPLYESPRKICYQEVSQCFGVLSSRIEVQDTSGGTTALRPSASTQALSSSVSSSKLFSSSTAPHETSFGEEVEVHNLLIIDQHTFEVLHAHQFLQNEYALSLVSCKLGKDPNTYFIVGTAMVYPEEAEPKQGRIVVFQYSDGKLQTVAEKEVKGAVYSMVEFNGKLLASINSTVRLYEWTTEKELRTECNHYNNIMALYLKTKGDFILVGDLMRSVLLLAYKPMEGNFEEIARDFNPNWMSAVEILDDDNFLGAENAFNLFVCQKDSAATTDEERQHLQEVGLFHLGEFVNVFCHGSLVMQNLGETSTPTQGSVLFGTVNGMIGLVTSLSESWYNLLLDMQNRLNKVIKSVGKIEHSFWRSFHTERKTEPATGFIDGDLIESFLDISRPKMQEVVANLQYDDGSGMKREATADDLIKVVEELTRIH

For the molecule `Nc1cccc2c1CN(C1CCC(=O)NC1=O)C2=O` (stereo not drawn) [lenalidomide], the “degradation of eGFP-IKZF1Δ fusion” value on eGFP-IKZF1Δ fusion is recorded as “potent degradation”.

Turning to `Nc1cccc2c1C(=O)N(C1CCC(=O)NC1=O)C2=O` (stereo not drawn) [pomalidomide], at eGFP-IKZF1Δ fusion, the “degradation of eGFP-IKZF1Δ fusion” value was “potent degradation”.

With `O=C1CCC(N2C(=O)c3ccccc3C2=O)C(=O)N1` (stereo not drawn) [thalidomide], the “degradation of eGFP-IKZF1Δ fusion” value at eGFP-IKZF1Δ fusion is recorded as “potent degradation”.

Turning to “CC220-1: zinc finger degron FYCTQCGAAFDRWEELYNHLLNH (SEQ ID NO: 185)”, in assay [1], the “degradation by iberdomide relative to control sequences” value is “more efficiently degraded by iberdomide (aka CC-220) than the indicated control sequences”.

“CC220-2: zinc finger degron MQCEICGFTCRRAEELNTHLNKH (SEQ ID NO: 186)”: the “degradation by iberdomide relative to control sequences” value in assay [1] is listed as “more efficiently degraded by iberdomide (aka CC-220) than the indicated control sequences”.

As to “CC220-3: zinc finger degron FYCKQCGANFSRWEELYNHLKAH (SEQ ID NO: 187)”, the “degradation by iberdomide relative to control sequences” value in assay [1] is “more efficiently degraded by iberdomide (aka CC-220) than the indicated control sequences”.

“G416A: SALL4 with G416A point mutation in ZnF2”: in the assay on DDB1ΔB-CRBN [2], the “IMiD induced CRBN binding” value is on record as “abrogated IMiD induced CRBN binding”. In assay [3], the “protein degradation in cells” value was “disable degradation in cells”.

With “Q595H: SALL4 ZnF4 with mutation of glutamine 595 residue”, in the assay with DDB1ΔB-CRBN [2], the “IMiD-dependent dimerization / binding affinity to CRBN” value is “reduced binding affinity”. In addition, the “protein degradation in cells” value in assay [3] is listed as “no effect at the ability of the protein product to be degraded”.

B1: G416N: SALL4 with G416N point mutation in ZnF2 (protein)
chain: ALYKHKCKYCSKVFGTDSSLQIHLRSHTGERPFVCSVCNHRFTTKGNLKVHFHRHPQVKAN
modifications: left off: small tags and cut ends
notes: SALL4 with G416N point mutation in ZnF2
For B1, the “IMiD induced CRBN binding” value in the assay on DDB1ΔB-CRBN [2] is on record as “abrogated IMiD induced CRBN binding”. The “protein degradation in cells” value in assay [3] is recorded as “disable degradation in cells”.

B2: S388N: SALL4 ZnF1-2 with S388N mutation in ZnF1 (SEQ ID NO: 84) (protein)
chain: ALYKHKCKYCNKVFGTDSSLQIHLRSHTGERPFVCSVCGHRFTTKGNLKVHFHRHPQVKAN
For the molecule B2, the “IMiD induced CRBN binding” value in the assay with DDB1ΔB-CRBN [2] is recorded as “maintained IMiD induced CRBN binding”.

B3: SALL4 ZnF1-2: degron tag SEQ ID NO: 27 (protein)
chain: ALYKHKCKYCSKVFGTDSSLQIHLRSHTGERPFVCSVCGHRFTTKGNLKVHFHRHPQVKAN
Regarding B3, in the assay with DDB1ΔB-CRBN [2], the “IMiD-dependent dimerization / binding affinity to CRBN” value was “sufficient to induce efficient dimerization”.

B4: IKZF1 (SEQ ID NO: 18): non-naturally occurring degron tag of SEQ ID NO: 18 (protein)
chain: RMLDASGEKMNGSHRDQGSSALSGVGGIRLPNGKLKCDICGIICIGPNVLMVHKRSHTGERPFQCNQCGASFTQKGNLLRHIKLHSGEKPFKCHLCNYACRRRDALTGHLRTHSVIKEETNHSEMAEDLCK
Consider B4, for which the “dimerization between CRBN-DDB1ΔB and IKZF1Δ” value in the assay with DDB1ΔB-CRBN [4] is reported as “Potent dimerization”.

Source of the values: patent publication US20220098251A1, “PEPTIDE TAGS FOR LIGAND INDUCED DEGRADATION OF FUSION PROTEINS” (DANA-FARBER CANCER INSTITUTE, INC., priority 2018, published 2022).
